Laboratory results reported in PMC8284440, “Toward New Transmission-Blocking Combination Therapies: Pharmacokinetics of 10-Amino-Artemisinins and 11-Aza-Artemisinin and Comparison with Dihydroartemisinin and Artemether” (Antimicrobial Agents and Chemotherapy, 2021).
Values after ≈ are worked out from the molar mass of the structure shown. Read-outs that look alike come from different tables or passages of the source.

Experiment: Kinetic solubility
Assay type: physicochemical
Experimental: For kinetic solubility assays, three solutions with differing pH were prepared. Phosphate-buffered saline (PBS) was prepared by mixing KH2PO4 (0.2 g), K2HPO4 (0.115 g), NaCl (0.8 g), and KCl (0.2 mg) in purified water (100 ml). The pH was measured and adjusted using 0.05 M HCl or 0.05 M NaOH to pH 7.4. The pH 2 solution was prepared by adding HCl (37%, 83 μl) to purified water (50 ml). FaSSIF buffer at pH 6.5 was prepared by adding KH2PO4 (2.042 g) and KCl (3.728 g) to purified water (450 ml) and adjusting the pH to 6.5 using 0.05 M HCl or 0.05 M NaOH as required. Simulated intestinal fluid (SIF) (Biorelevant, London, UK) powder (5.6 mg) was then added to the buffer (25 ml) to complete the process.
(i) Kinetic solubility. Duplicate stock solutions of each compound at a concentration of 10 mM in DMSO were prepared in a 96-well plate in PBS at pH 7.4, water at pH 2, and FaSSIF buffer at pH 6.5 to a final concentration of 200 μM ([68]). These three solutions mimic the pH and conditions of the gastrointestinal tract. As the FaSSIF buffer mimics the fasted state in vitro, solubility in this buffer provides a guide as to whether compounds should be dosed with or without meals ([87]). Calibration standards were prepared for each compound in DMSO at 11, 100, and 220 μM. These standards were used to produce a calibration curve required for calculation of the concentration of each compound in the test solutions. […] Plates were agitated on a plate shaker for 2 h (500 rpm, 22°C). Sample analysis was carried out by liquid chromatography-tandem mass spectrometry (LC-MS/MS) analysis as described in “Sample analysis” below. Peak areas were integrated, and calibration curves were constructed and used to calculate the concentrations of each compound in the three buffers.
Sample extraction. […] The organic layer was then transferred and evaporated under a gentle stream of nitrogen at room temperature for 30 min. The dried samples were reconstituted in mobile phase, and a 5 μl sample was injected for LC-MS/MS analysis. The only exception was the arylurea 10, for which no liquid-liquid extraction was conducted; instead, the 200 μl acetonitrile solution was evaporated under a gentle stream of nitrogen at room temperature. The dried sample was reconstituted in the mobile phase, and a 5 μl sample was injected for LC-MS/MS analysis. The plasma samples for each compound from the in vivo studies were extracted by mixing 350 μl ethyl acetate with 15 μl of plasma sample and 35 μl of universal buffer containing internal standard at pH 8. The samples were vortexed for 1 min and centrifuged for 5 min, and the organic layer was then transferred and evaporated under a gentle stream of nitrogen at room temperature for 30 min. The dried samples were each reconstituted in the mobile phase, and a 5 μl sample was injected for LC-MS/MS analysis.
LC-MS/MS analysis. For all the artemisinins except the arylurea 10, gradient chromatography was performed on a Phenomenex (Torrance, CA, USA) Luna PFP(2) analytical column (100 Å, 5 μm, 2 by 50 mm) and an AB Sciex API 5500 mass spectrometer which was operated at unit resolution in the multiple reaction monitoring (MRM) mode. The HPLC method used was a gradient method with 5 mM ammonium acetate and 0.1% acetic acid in water as the aqueous phase and a mixture of acetonitrile and methanol (1:1 vol/vol) containing 5% of the aqueous phase as the organic phase ([89]). The arylurea 10 was analyzed using a Phenomenex Gemini NX-C18 (5 μm, 2.1 mm by 50 mm) column with an AB Sciex 3200 QTRAP mass spectrometer operated at unit resolution in the MRM mode. The HPLC method used was a gradient method with 5 mM ammonium acetate and 0.1% acetic acid in water as the aqueous phase and a mixture of acetonitrile and methanol (1:1 vol/vol). The transitions of the molecular ions were monitored, as listed in Table S8 in the supporting information. The calibration range was between 0.002 μg/ml and 6.250 μg/ml.

[1] = FaSSIF buffer, 22 °C, pH 6.5, fassif, kinetic from dmso stock, read-out: Solubility FaSSIF pH 6.5
[2] = PBS, 22 °C, pH 7.4, aqueous buffer, kinetic from dmso stock, read-out: Solubility pH 7.4
[3] = pH 2 solution (HCl in water), 22 °C, pH 2, kinetic from dmso stock, read-out: Solubility pH 2

SMILES | solubility at 2 h [1] [µM] | solubility at 2 h [2] [µM] | solubility at 2 h [3] [µM] | solubility at 2 h (pH 2, FaSSIF pH 6.5 and pH 7.4 together, read-out: Solubility in the three aqueous solutions) [µM]
C[C@H]1[C@H](N2CCSCC2)O[C@@H]2O[C@@]3(C)CC[C@H]4[C@H](C)CC[C@@H]1[C@@]24OO3 [Artemiside 5, artemiside] | < 5 | < 5 | 12.4 (≈ 4.58 µg/mL) | 
C[C@H]1[C@H](N2CCS(=O)(=O)CC2)O[C@@H]2O[C@@]3(C)CC[C@H]4[C@H](C)CC[C@@H]1[C@@]24OO3 [Artemisone 6, artemisone] | 74.4 (≈ 29.9 µg/mL) | 120 (≈ 48.3 µg/mL) | 73.7 (≈ 29.6 µg/mL) | 
C[C@H]1[C@H](N2C=CS(=O)(=O)CC2)O[C@@H]2O[C@@]3(C)CC[C@H]4[C@H](C)CC[C@@H]1[C@@]24OO3 [M1 12] | 57.6 (≈ 23 µg/mL) | 74.5 (≈ 29.8 µg/mL) | > 150 | 
C[C@H]1[C@H](N2CCN(C(=O)Nc3ccc(F)cc3)CC2)O[C@@H]2O[C@@]3(C)CC[C@H]4[C@H](C)CC[C@@H]1[C@@]24OO3 [Arylurea 10] | 24 (≈ 11.8 µg/mL) | 27 (≈ 13.2 µg/mL) | 10 (≈ 4.9 µg/mL) | 
C[C@@H]1CC[C@H]2[C@@H](C)C(=O)N[C@@H]3O[C@@]4(C)CC[C@@H]1[C@]32OO4 [11-Aza-artemisinin 11, 11-aza-artemisinin] | > 150 | 144 (≈ 40.6 µg/mL) | > 150 | > 144
C[C@H]1[C@H](NS(N)(=O)=O)O[C@@H]2O[C@@]3(C)CC[C@H]4[C@H](C)CC[C@@H]1[C@@]24OO3 [Sulfamide 7] | < 5 | 11.5 (≈ 4.17 µg/mL) | > 150 | 
